Test results published in patent publication US9463189B2 (BPV Holdings, LLC, priority 2007, dated 2016).
Counter-ions that a name gives are not always drawn.

Experiments:
Type in all cases: in vivo, C57B1/6J mice
[1] = system: TGFβ-1; experiment: TGFβ-1 levels in liver lysates of NASH mice
Description: (§1) Early Steatosis Model: C57B1/6J mice (22-39 days old) mice were used for the study. Mice were fed normal chow food (Lab Diet, 5P14Prolab Animal Diet, PMI Nutritional International, Brentwood, Mo., Cat# RMH 2500) or 58% high fat diet (HFD, 58 kcal % fat and corn starch with purple dye, Research Diets, New Brunswick, N.J., Cat# D12330 equivalent to Western diet) for 120-150 days. […] This group is referred to as the HFD-low body group in FIG. 1A (insulin & liver fat accumulation˜normal). On the other hand, one fifth of the mice gained 60-70% higher body weight (compared to normal chow fed mice) while on the same HFD diet (NASH group, very high insulin and liver fat) further shown in FIG. 1A. The majority of the mice (three fifths) gained body weight as expected on the HFD (30-40% higher than the normal chow fed mice) and is referred to as the DIO group (normal to moderately high insulin and liver fat accumulation) as shown in FIG. 1A. Control animals (n=5) representative of the HFD-low body weight and the NASH groups were sacrificed prior to starting the rest of the animals on treatment with the Compound 2 (5 or 10 mg/Kg/day). […]
(§2) Following 120-150 days on the HFD, mice in the NASH group were treated with Compound 2 (5 or 10 mg/Kg/day) or vehicle (10% Encapsin) for 42 days. […] Body weight and food intake was measured throughout the study.

[2] = system: MCP-1; experiment: MCP-1 in plasma and liver lysates (immunoassay)
Procedure: (§3) Following 120-150 days on the HFD, mice in the NASH group were treated with Compound 2 (5 or 10 mg/Kg/day) or vehicle (10% Encapsin) for 42 days. Fasting and post prandial (PP) blood draws were taken at the beginning of the study (compound treatment) to identify and confirm the NASH group and during the study to evaluate various pharmacological responses. Since the NASH mice are severely hyperinsulinemic compared to NC mice, glucose tolerance testing (GTT, measures peripheral insulin resistance) was performed to evaluate the effect of Compound 2 on improvement of peripheral insulin sensitivity. Treatment was administered for 42 days (separate experiments). Body weight and food intake was measured throughout the study.
Insulin fasting plasma samples were tested using Mercodia ultra sensitive mouse insulin ELISA: 2.5 μL EDTA plasma, ALPCO Diagnostics, Uppsala, Sweden, Cat #08-10-1150-99, LOQ (0.22-7.1 μg/L). Mouse JE/MCP-1 post prandial samples were collected at sacrifice. 12.5 μL EDTA plasma, R & D Systems, Minneapolis, Minn., Cat # MFE00, LOQ (15.6-1000 pg/mL).

[3] = system: NASH mice; experiment: Serum transaminases AST and ALT in HFD-induced NASH mice (clinical chemistry panel)
Description: Early Steatosis Model: C57B1/6J mice (22-39 days old) mice were used for the study. Mice were fed normal chow food (Lab Diet, 5P14Prolab Animal Diet, PMI Nutritional International, Brentwood, Mo., Cat# RMH 2500) or 58% high fat diet (HFD, 58 kcal % fat and corn starch with purple dye, Research Diets, New Brunswick, N.J., Cat# D12330 equivalent to Western diet) for 120-150 days. […] This group is referred to as the HFD-low body group in FIG. 1A (insulin & liver fat accumulation˜normal). On the other hand, one fifth of the mice gained 60-70% higher body weight (compared to normal chow fed mice) while on the same HFD diet (NASH group, very high insulin and liver fat) further shown in FIG. 1A. The majority of the mice (three fifths) gained body weight as expected on the HFD (30-40% higher than the normal chow fed mice) and is referred to as the DIO group (normal to moderately high insulin and liver fat accumulation) as shown in FIG. 1A. Control animals (n=5) representative of the HFD-low body weight and the NASH groups were sacrificed prior to starting the rest of the animals on treatment with the Compound 2 (5 or 10 mg/Kg/day). Liver, white adipose and muscle from the sacrificed mice were collected for histology performed on the liver tissue.
as §3
Tail blood was collected into EDTA capillary tubes (Becton, Dickinson and Company, Franklin Lakes, N.J., Cat #365973). Upon sacrifice, blood was collected by cardiac puncture using a 1 mL Syringe Tuberculin Slip Tip (Becton, Dickinson & Company, Cat #309602) and B-D25G 5/8 needle (Becton Dickinson, Franklin Lakes, N.J., Cat #305122) and saved into Microtainer brand tube with EDTA (Becton, Dickinson and Company, Cat #365973). The blood was spun for 8 minutes at 8500 rpm at 4° C. (Eppendorf, Centrifuge 5415R, New York, N.Y.). Plasma was collected and stored at −20° C. for further analyses
80 μL EDTA plasma was diluted with 80 μL Dulbecco's phosphate buffered saline (Gibco, Grand Island, N.Y., Cat #14040-133) and analyzed in Olympus AU600 (Olympus, London, UK) for the following endpoints. The lower and upper limit ranges were according to the assay values provided by the JAS Diagnostics, INC (Miami, Fla.). • Glucose (LL 94-116, UL 297-353 mg/dL, Cat # JAS GLU2-125) • Triglycerides (LL 46-102, UL 128-168 mg/dL, Cat # TRI2-125) • ALT/GPT (LL 10-34, UL 64-114 U/L, Cat # JAS ALT2-125) • AST/GOT (LL 18-46, UL 121-187 U/L, Cat # JAS AST2-125) • Multi-Chemistry calibrator (Albumin: 3.9 g/dL, Cholesterol: 212 mg/dL, • Creatinine: 4.4 mg/dL, Glucose: 220 mg/dL, Triglycerides: 116 mg/dL, Cat # JAS CAL1-5) • Multi-Chemistry control level 1 (Range: See above for each constituent, Cat # JAS CON1-5) • Multi-Chemistry control level 2 (Range: See above for each constituent, Cat # JAS CON2-5)

[4] = Body weight loss in NASH mice; settings: oral administration, p<0.05 vs. vehicle
Description: as §1, §2

[5] = oral administration, NASH mice, p<0.05 vs. vehicle

C[C@@H]1CN(Cc2ccc(OC(F)(F)F)cc2)C[C@H](C)N1S(=O)(=O)c1cccc2c1C[C@@H](C(=O)O)C2 [Compound 2, (S)-4-[cis-2,6-Dimethyl-4-(4-trifluoromethoxy-benzyl)-piperazine-1-sulfonyl]-indan-2-carboxylic acid tosylate]
decrement of TGFβ levels in the liver lysates ([1]; 10 mg/Kg/day, p<0.01, FIG. 3A): 49%
levels of inflammatory marker TGFβ-1 [1, 5]: normalized levels
reduction of MCP-1 levels in plasma, treated vs. untreated mice ([2]; 42 days of 5 mg/kg/day, p<0.006): 34%
reduction of MCP-1 levels in the liver lysates, treated vs. untreated mice ([2]; 42 days of 5 mg/kg/day, trend, p=0.08): 31%
levels of plasma MCP-1 [2, 5]: normalized levels
reduction in AST compared to the vehicle group ([3]; 42 days of 5 mg/kg/day, p<0.02): 43%
reduction in ALT compared to the vehicle group ([3]; 42 days of 5 mg/kg/day, p<0.05): 43%
ALT serum level, treated group ([3]; 42 days of 5 mg/kg/day, vehicle 108±15, in U/L): 62±13
AST serum level, treated group ([3]; 42 days of 5 mg/kg/day, vehicle 201±23, in U/L): 115±19
levels of serum transaminases AST and ALT ([3]; oral administration, summary): reduced levels
weight loss [4]: increased weight loss
